Test results taken from US7129211B2, “Adipocyte Insulin adpinsl with Insulin A and B chains and an effective method of treating type 2 diabetes in a subject using adipocyte insulin” (Council of Scientific and Industrial Research, priority 2002, dated 2006).
Entries after “also recorded” stand apart in the source; their conditions may differ.

Tests used:
[1] = system: streptozotocin induced diabetic rat; assay: Biological activity of purified adipocyte insulin on streptozotocin induced diabetic rat; assay type: in vivo
Method: FIG. 5. Determination of biological activity of purified adipocyte insulin on streptozotocin induced diabetic rat. (a) The male Sprague Dawley rats of 100–150 g weight were selected for streptozotocin (STZ) treatment. […] (A) STZ untreated rats, only vehicle (0.9% saline) injected (n-6), (B) STZ rat, vehicle injected (n-6), (C) STZ rat injected with AdpInsl 10 μg/100 g body wt of rat (n-6). (D) STZ rat injected with 10 ug/100 g body wt of rat (n=6J porcine insulin. Each value is ±SEM of 6 observations. p<0.001 when C is compared with B,**p<0.05 when C is compared with D.
Insulin injection-Adipocyte IR-insulin (20 ug per 100 gm body weight) from incubation medium or 10 ug AdpInsl or porcine insulin was intraperitoneally injected into the male Sprague Dawley rats weighing between 100–150 g. After 6 hrs of injection blood was collected by retroorbital puncture using capillary tube, centrifuged to collect plasma and glucose content was determined by glucose-glucose oxidase method.

carp adipocytes = assay: Determination of insulin activity in vitro: D-14C-glucose uptake by adipocytes; assay type: cell-based, carp Catla catla
Method: (b) Effect of AdpInsl and porcine insulin (PI) on glucose uptake by carp adipocytes. Adipocytes 1×10^5 cells/incubation, suspended in MEM containing 1% fetal calf serum and preincubated for 2 hours in the absence of insulin, after addition of D-^14C-glucose uptake was determined by the procedure described under the “Experimental procedures”. *p<0.05 when AdpInsl is compared with porcine insulin.
Determination of insulin activity in vitro—Freshly prepared adipocytes were suspended in the MEM and after 2 h 1.0 microCi of D-(^14C) glucose (final concentration 25 uM| containing was added to the adipocyte incubation. 25 ng/ml of AdpInsl or porcine insulin was added to the incubation and uptake of glucose was measured by following a previously described method (21). Initial rates of glucose uptake was determined from the incubation of adipocyte without insulin. The reaction was stopped at 3 min by washing the cells three times with ice cold MEM in the presence of 0.3 mM phloretin to correct the glucose uptake data from simple diffusion and nonspecific trapping of radioactivity.

“AdpInsl: Insulin purified from Catla catla carp adipocytes, A chain SEQ ID No. 1 (21 aa), B chain SEQ ID No. 2 (30 aa) (chain 1 GIVEQCCHKPCSIFELQNYCN; chain 2 PGAPQHLCGSHLVDALYLVCGPTGFFYNPK; listed as Catla catla)” was tested, and the “hypoglycemic activity greater than porcine insulin” value ([1]; STZ rat, 10 ug/100 g body wt each insulin, p<0.05) was 25%, the hyperglycemia ([1]; STZ rat, 10 ug/100 g body wt i.p., 6 hrs, p<0.001 compared with control) was “significantly reduced hyperglycemia” and the “hypoglycemic effect compared to porcine insulin” value ([1]; streptozotocin induced diabetic rat) was “significantly stronger hypoglycemic effect”. The “increase in glucose uptake by adipocyte” value (carp adipocytes; 25 ng/ml insulin, 1x10^5 cells/incubation, uptake stopped at 3 min) was “more than 2 fold” and the “stimulation of glucose uptake compared with porcine insulin” value (carp adipocytes; 25 ng/ml of each insulin, p<0.05) was “significantly higher; also recorded: more actively than porcine insulin”.
